# Data published in patent US12409304B2, “Drug delivery devices with drug-permeable component and methods” (TARIS Biomedical LLC, priority 2013, dated 2025).
# Where a name gives a salt, the structure may show the parent alone.
# What was measured:
# physchem = settings: 37 °C, water
# [1] = In vitro drug permeation from Tecophilic film pouches loaded with a gemcitabine tablet (Example 1); assay type: physicochemical; settings: DI water at 37° C.
# Method: Pouches formed of Tecophilic™ film and loaded with gemcitabine (GEM) were tested in vitro for drug permeation. The effect of gamma irradiation on these pouches was also studied. The pouches were made of HP-93A-100 and HP-60D-60 films with thickness of 0.5 mm (films provided by Lubrizol) (http://www.lubrizol.com/Medical/Products/Tecophilic.html). These thermoplastic polyurethanes (TPUs) were selected for their biocompatibility and ability to absorb equilibrium water content up to 100% of the weight of dry resin, as well as other properties. The material properties of the film materials used are given below in Table 1. Each pouch was made out of 2 films which were heat-sealed at all four edges of each pouch after loading each pouch with a single tablet of gemcitabine HCl or base formulated as follows: (1) Gemcitabine HCl: 89% GEM HCl, 10% Isomalt, 1% Lubritab (water insoluble), or […] Some of the pouches were gamma irradiated (25 kGy). The pouches were then placed into 21 mL DI water at 37° C. Thereafter, at each time point, 5× inversion, 1 mL sample was taken out followed by a 1 mL DI water refill.
# [2] = Approximate solubility of drugs in water
# [3] = In vitro gemcitabine release from one-module and four-module devices with end wall disks (Example 5); assay type: physicochemical; settings: one module device, jar rotated at 4 rpm or not
# Method: There were three experimental groups tested: 1) one module device with the releasing jar being rotated in the rotator at 4 rpm ('Rotator'), 2) one module device without the jar rotated ('Static'), and 3) four module device without the jar rotated ('Static'). Each module is comprised of silicone tube made of MED-4750 (Nusil) with the dimensions of 2.64 mm ID and 0.20 mm wall thickness. Multiple gemcitabine HCl tablets with 2.6 mm OD were loaded into the silicone tube with each module having a total gemcitabine HCl payload of approximately 190 mg. The tablet formulation was 90% gemcitabine HCl, 5% PVP, 2.5% Neusilin, and 2.5% magnesium stearate. […] Thermoplastic Polyurethanes) at each end of the tablet drug core. The dimensions of each disk were approximately 0.5 mm thickness and 3.0 mm OD. The OD (3.0 mm) of the disks was larger than the silicone tube ID (2.64 mm), and so the disks were frictionally fit in the silicone tube. Each module has a silicone outer washer, made of MED-4780 (Nusil), located next to each disk with silicone adhesive (MED3-4213) applied around the washer, to stabilize the outward migration of the disk. […] In addition, each module has a polyimide inner washer with 2.67 mm ID, 0.064 mm wall, and approximately 4 mm length. The inner washer was filled with a tablet so that the disk was initially in contact with the tablet. […]
# [4] = In vitro release from Tecophilic film pouches loaded with gemcitabine HCl and urea tablets (Example 1A); assay type: physicochemical; settings: pouches with 1 gemcitabine HCl tablet and 4 urea tablets, DI water at 37° C.
# Method: Pouches constructed as in Example 1 were made, except each was loaded with 1 gemcitabine (GEM) HCl tablet and 4 tablets of urea. The pouches were then placed into 21 mL DI water at 37° C. Thereafter, at each time point, 5× inversion, 1 mL sample was taken out followed by a 1 mL DI water refill.
smiles,measurement,setting,value
Nc1ccn([C@@H]2O[C@H](CO)[C@@H](O)C2(F)F)c(=O)n1 [gemcitabine HCl],solubility,physchem,~80 mg/mL
same,relative speed of release from pouches,[1]; comparison of film grades and of drug forms,released faster than gemcitabine base
Nc1ccn([C@@H]2O[C@H](CO)[C@@H](O)C2(F)F)c(=O)n1 [gemcitabine base],approximate solubility,[2]; water at 37° C.,~15 mg/mL
Nc1ccn([C@@H]2O[C@H](CO)[C@@H](O)C2(F)F)c(=O)n1 [gemcitabine],permeation through 0.5 mm Tecophilic film,[1]; HP-93A-100 and HP-60D-60 pouches,permeated 0.5 mm Tecophilic™ film
same,"gemcitabine release rate, Static vs Rotator",[3],no significant difference
same,permeation through 0.5 mm Tecophilic film,[4],permeated 0.5 mm Tecophilic™ film in one day
Cc1ccc(O)c([C@H](CCN(C(C)C)C(C)C)c2ccccc2)c1 [tolterodine tartrate],solubility,physchem,~12 mg/mL
O=C(O[C@H]1C[C@H]2CC[C@@H](C1)[N+]21CCCC1)C(O)(c1ccccc1)c1ccccc1 [trospium chloride],solubility,"[2]; 37 °C, water",~500 mg/mL
NC(N)=O [urea],permeation through 0.5 mm Tecophilic film,[4],permeated 0.5 mm Tecophilic™ film in one day
